Test results: US20240139167A1, “LYSOSOME-ASSOCIATED MEMBRANE PROTEIN TARGETING COMPOUNDS AND USES THEREOF” (HADASIT MEDICAL RESEARCH SERVICES AND DEVELOPMENT LTD., priority 2021, published 2024)

Columns and labels:
[1] = system: APBD and HC skin fibroblasts; test: Image-based phenotyping (IBP); format: cell-based, human
From the text: FIGS. 7A-7F include graphs of IBP parameters in HC and APBD fibroblasts and variable importance plot as an output of the random forest classification performed on the different variables (cell features) indicated on the x-axis. […] The different comparisons analyzed (comp A=Compound 1) are shown (7B); bar graphs of lysosomal parameters affected by Compound 1 in APBD and HC cells as analyzed by IBP (7C); Volcano plots of the proteins affected by APBD and Compound 1 under starvation and glycogen burden conditions (7D); Venn diagrams of proteins down-modulated by APBD and up modulated by Compound 1 and vice versa under starvation (48) and glycogen burden (48+24) conditions (7E); and gene ontology of proteins up-modulated (left) and down-modulated (right) by Compound 1 (7F).
APBD skin fibroblasts were seeded at 1,000 cells/well and cultured in specialized microscopy-grade 96-well plates (Grenier Bio-One, Germany). Following the different treatments, a mix of Thermo Scientific cellular fluorescent dyes in PBS was added to each well for 30 min at 37° C. in a 5% CO2 incubator. This mix (FIGS. 4C and 7B) included DAPI (1 μg/ml, nuclear (DNA) stain), MitoTracker Green (500 nM, potential-independent mitochondrial stain), TMRE ([…] mitochondrial stain), and Cell Mask Deep Red (0.5 μg/ml, cytosol stain). In FIG. 7C, only lysosomes were stained with LysoTracker Deep Red (75 nM). Cells were then fixed with 4% paraformaldehyde (PFA), washed with PBS and plates were transferred to an InCell2200 (GE Healthcare, U.K.) machine for image acquisition at 40× magnification. The output produced was based on comparative fluorescence intensity. Object segmentation was carried out using multi-target analysis in the GE analysis workstation to identify the nuclei and cell boundary. […]
As a first step, the inventors required a classification method, both wholistic and feature-specific, which would enable to quantify differences between APBD and HC cells and thus to estimate the restorative effect of Compound 1 on APBD cells. […]

Gbe^ys/ys mice [2] = test: In vivo metabolism in metabolic cages; settings: 9 months old mice
Procedure: FIGS. 3A-3I include a graph of the effect of Compound 1 on in vivo metabolism; mice were monitored by the Promethion High-Definition Behavioral Phenotyping System (Sable Instruments, Inc.) over a 24 hr period. Effective mass was calculated by power of 0.75. Data are mean±SEM from n=11 9 months old mice in the wt. control vehicle arm, n=6 9 months old mice in the GBE^ys/ys vehicle arm and n=7 9 months old mice in the Gbe^ys/ys 144DG11 (Compound 1)-treated arm. All injections were from the age of 4 months. […] Blood metabolic panel based on n=5, 9.5 months old mice treated as indicated (3I). Blood glucose was increased, and blood triglycerides decreased in Gbe^ys/ys […] by Compound 1 (p<0.05, Student's t-tests). *p<0.05 v wt. controls, #p<0.05 v GBE^ys/ys vehicle treated mice;
The effect of Compound 1 on various metabolic parameters was determined in vivo using metabolic cages. Fuel preference at the whole animal level is determined by the respiratory quotient (RQ, the ratio of CO2 produced to O2 consumed). Lower RQ indicates higher fat burn, while higher RQ indicates higher carbohydrate burn. […] Stimulation of ambulatory activity (FIG. 3E) and of meal size and water intake (FIGS. 3F-3H) are in line with this observation of stimulation of carbohydrate catabolism in affected animals by Compound 1. Moreover, put together, the increased fuel burning, and food intake indicate that Compound 1 can improve metabolic efficiency in the affected animals.

Gbe^ys/ys mice [3] = test: Transmission electron microscopy of liver sections, lysosomal glycogen; format: in vivo; settings: 9.5 month old mice
From the text: FIGS. 6A-6E include bar graphs of autophagic flux, determined by the extent of lysosomal inhibitors-dependent increase in the ratio of lipidated to non-lipidated LC3 (LC3II/LC3I) (6A); representative TEM images of liver tissue from 9.5 month old Gbe^ys/ys mice treated with Compound 11, or 5% DMSO vehicle (6B), G: Glycogen (alpha particles) and polyglucosan (structures with variable electron densities), L: Lysosomes, M: Mitochondria; right panel: lysosomal glycogen stain was quantified by ImageJ “count particle” tool; micrograph of LAMP1 knocked down and control APBD primary skin fibroblasts treated or not with Compound 1 and lysosomal inhibitors (LI) and quantification of 3 experiments and results of Student's t-tests. *, p<0.1; **, p<0.05; ***, p<0.01 (6C); graphs of lysosomal pH changes determined in APBD primary fibroblasts transduced with lentiviruses encoding for GFP or GFP-shLAMP1 and treated or not with Compound 1 for 24 h and confocal microscope images of cells treated with Lysosensor and stained for PAS (6D); and bar graph of ATP production rate assay in LAMP1-KD and GFP (Control) cells treated for 24 h (chronic) or on assay (acute) with Compound 1 (6E).
Liver tissue was minced and fixed in a solution containing 2% paraformaldehyde, 2.5% glutaraldehyde (EM grade) in 0.1 M sodium cacodylate buffer pH 7.3 for 2 hours at RT, followed by 24 h at 4 ° C. […]

## COCCN(Cc1sccc1C)C(=O)c1cc(C)nc(O)c1 [Compound 1]
[1]
  IBP signature, features affected: mostly affected nuclear and mitochondrial membrane potential (TMRE) parameters
[1]; APBD cells
  lysosomal size: reduced lysosomal size
  mitochondrial membrane potential (MMP): hyperpolarized
Gbe^ys/ys mice [2]
  ambulatory activity: Stimulation
  carbohydrate burning at the expense of fat burning: increases
  meal size and water intake: Stimulation
  total energy expenditure: increases
Gbe^ys/ys mice [2]; injections from age 4 months
  respiratory quotient (RQ): increased RQ to even higher levels than those of the wild type (wt) animals
Gbe^ys/ys mice [3]
  lysosomal glycogen in liver sections: decrease in lysosomal glycogen
